Reference: patent US20030211076A1, “Compositions and methods for treatment of proliferative disorders” (priority 2003, published 2003)
Entries after “also recorded” stand apart in the source; their conditions may differ.

Legend:
[1] = system: growth-arrested Swiss 3T3 cells; test: FGF2-stimulated cell cycle progression, FACS analysis; type: cell-based
Procedure: The activity of native and LO-oxidized FGF2 on cell cycle progression was evaluated by using fluorescence activated cell sorting (FACS) analysis (Darzynkiewicz et al.). Swiss 3T3 cells were growth-arrested by incubation in 0.3% fetal bovine serum (FBS)/Dulbecco's Modified Eagle's Medium (DMEM) for 3 days. As depicted in FIGS. 6A-6C, the prepared growth-arrested cells were treated for 20 h at 37° C. with or without FGF2, LO, BAPN or their combinations as indicated. After treatment, cells were washed, suspended by treatment with trypsin, washed again and fixed in 0.5% formaldehyde/0.1% Triton X-100/PBS for 15 minutes on ice followed by incubation of samples in 10 μg propidium iodide and 20 units RNAse per ml of PBS for 60 minutes in the dark for DNA staining. The fluorescence intensities of each sample of 10,000 cells in G1, S and G2/M phases were measured by flow cytometry at the FL2 setting of the fluorescence activated cell sorting (FACS) instrument (Becton-Dickinson Corp.). […] LO was presented at 10 nM, FGF2 at 5 ng ml^−1 and BAPN at 100 μM. Data represent the means (+sd) of three separate experiments each assessed with duplicate dishes.

VEC on Matrigel = test: Time course of angiogenic response of VEC on Matrigel without Tat stimulation; type: cell-based; conditions: 6, 24 and 48 h
Procedure: Time course studies on inhibition by LO of angiogenic response of VEC on Matrigel without Tat stimulation was also investigated. Cells (3×10^5) were plated on Matrigel-coated dishes. After 1 h incubation, various reagents were added to each culture. […] At each time point, a, control; b,10 nM LO; c,10 nM LO that was preincubated with 100 μM BAPN for 15 min at 37°; d, 100 μM BAPN, alone.

[2] = system: FGF2 nuclear localization in Swiss 3T3 cells; test: FGF2 nuclear localization, immunochemical staining; type: cell-based
Procedure: After endocytosis, a fraction of exogenous FGF2 can enter the nucleus of a variety of cell types in a cell cycle-dependent manner (Mason; Rifkin et al.; Prats et al.; Stachowiak et al., 1996; Arese et al.; Baldin et al.). Thus, the possibility that oxidation of FGF2 by LO affects the nuclear localization of this growth factor was tested by using immunochemistry. In FIGS. […]

[3] = system: intracellular FGF2 in NIH 3T3 6-1 cells; test: Intracellular FGF2 crosslinking by LO, Western blotting with monoclonal anti-FGF2; type: cell-based, mouse
Procedure: The possibility that exposure of cells to LO alters the physical state of intracellular FGF2 was assessed by Western blotting with monoclonal anti-FGF2 of cell lysates. Subconfluent NIH 3T3 and NIH 3T3 6-1 cells were incubated for 20 h in 0.3% FBS/DMEM with or without additives as indicated below. Cells were suspended by trypsin treatment and lysed. Aliquots of lysates containing 50 μg of cell protein were analyzed by Western blotting of SDS-PAGE electrophoretograms probing with monoclonal anti-FGF2 (FIGS. 11A and 11B). Total protein was visualized by Coomassie blue staining of SDS-PAGE electrophoretograms (FIG. 11C). FIG. 11A represents FGF2 expression in NIH 3T3 (lane 1) and NIH 3T3 6-1 cells (lane 2). FIG. 11B represents forms of intracellular FGF2 in NIH 3T3 6-1 cells incubated in the absence (lane 1) or presence of 25 nM LO (lane 2) or presence of 25 nM LO which had been preincubated with 100 μM BAPN for 15 min at 37° C. (lane 3). FIG. 11C represents the total protein profiles in control and LO-treated cells with treatments in each lane corresponding to those in FIG. 11B.

[4] = system: porcine pulmonary arterial VEC; test: Growth of VEGF165-stimulated VEC (cell counting); type: cell-based
Procedure: The effects of LO oxidized VEGF165 on cell proliferation was also assessed. VEGF165 is a potent mitogen for vascular endothelial cells (VEC). Porcine pulmonary arterial VEC (2×10^4) were plated and incubated overnight in 35 mm-dishes containing 2 ml 15% FBS/M199 medium, and then refed with 5% FBS/M199 with different treatment regimens as shown in A, B and C of FIG. 18. FIG. 18A represents a dose response of VEGF165-stimulated cell growth. Media were supplemented with VEGF165 at the indicated doses and cells were incubated for additional 3 days. Cultures were refed once during the incubation period with fresh media supplemented with VEGF165 at indicated doses. Cells were harvested by trypsinization and counted with a hemacytometer. FIG. 18B represents the LO inhibition of VEGF165-stimulated cell growth. FIG. 18C represents the effects of inactivation of LO by BAPN on VEGF165-stimulated cell growth. […] Data represent the means (±sd) of three separate experiments each assessed with triplicate dishes.

[5] = system: porcine pulmonary arterial vascular endothelial cells (VEC); test: Growth of Tat-stimulated vascular endothelial cells (cell counting, phase-contrast microscopy); type: cell-based
Procedure: Stimulation of cell proliferation of porcine pulmonary arterial vascular endothelial cells (VEC) was tested with LO-oxidized Tat. VEC (2×10^4) were plated and incubated overnight in 35 mm-dishes containing 2 ml 15% FBS/M199 medium, and then refed with 5% FBS/M199 with different treatment regimens as shown in A, B and C of FIG. 13. FIG. 13A represents a dose response of Tat-stimulated cell growth. Media were supplemented with Tat at the indicated doses and cells were incubated for additional 3 days. Cultures were refed once during the incubation period with fresh media supplemented with Tat at indicated doses. Cells were harvested by trypsinization and counted with a hemacytometer. FIG. 13B represents the LO inhibition of Tat-stimulated cell growth. FIG. 13C represents the effects of inactivation of LO by BAPN on Tat-stimulated cell growth. LO: 3 or 10 nM, Tat: 10 ng ml^−1, BAPN: 100 μM. Data represent the means (±sd) of three separate experiments each assessed with triplicate dishes.
Numerical and morphological alterations in Tat-stimulated VEC cells treated with LO were observed under phase-contrast microscopy (25'). Cells were cultured as described in FIG. 13 and treated with additives as indicated below. The following represents FIG. 14 phase contrast microscopy: A, control; B, 10 ng ml^−1Tat; C, 10 ng ml^−1 Tat+3 nM LO; D, 10 ng ml^−1 Tat+3 nM LO that was preincubated with 100 μM BAPN for 15 min at 370; E, 100 μM BAPN, alone, and F, 3 nM LO, alone.

Compound | response relative to that observed with FGF2 alone ([1]; FGF2 5 ng/ml treated with 10 nM LO and 100 μM BAPN) | organization of VEC to form capillary-like structure (VEC on Matrigel; 100 μM BAPN alone) | effect on LO inhibition of nuclear translocation of FGF2 ([2]; 100 μM BAPN with LO and FGF2) | FGF2 transport to the nucleolus ([2]; BAPN in the absence of added LO) | effect on LO-induced FGF2 oligomer formation ([3]; 25 nM LO preincubated with 100 μM BAPN for 15 min at 37° C.) | effect on LO inhibition of VEGF165-stimulated VEC proliferation ([4]; 100 μM BAPN) | cell growth ([5]; 100 μM BAPN alone) | effect on LO inhibition of Tat-stimulated cell growth ([5]; 100 μM BAPN, LO 3 or 10 nM, Tat 10 ng/ml) | maximal decrease of FGF2 stimulation of cell cycle progression ([1]; 10 nM (0.32 μg/ml) LO, 0.28 nM FGF2) | organization of VEC to form capillary-like structure (VEC on Matrigel; 10 nM LO preincubated with 100 μM BAPN (BAPN-inactivated)) | organization of VEC to form capillary-like structure (VEC on Matrigel; 10 nM active LO) | levels of nuclear FGF2 ([2]; LO in the absence of exogenous FGF2 or BAPN) | intranuclear FGF2 ([2]; simultaneously incubated with FGF2 and 10 nM LO) | forms of intracellular FGF2 ([3]; 25 nM LO, 20 h) | VEGF165-dependent cell growth ([4]; VEGF165 15 ng/ml) | Tat-dependent cell proliferation ([5]; LO at 3 nM, Tat 10 ng/ml) | cell numbers ([5]; LO at doses ≧10 nM, Tat 10 ng/ml)
N#CCCN [BAPN, β-Aminopropionitrile, reference compound] | 82±6% | did not have significant effects | prevented | increased FGF2 transport to the nucleolus | prevented | effectively blocked | had no effect on the cell growth | totally inhibited; also recorded: cells sustained growth to confluence | – | – | – | – | – | – | – | – | –
lysyl oxidase [LO] | – | – | – | – | – | – | – | – | 80% | strong inhibitory effects | strong inhibitory effects | reduced levels of nuclear FGF2 | did not exhibit enhanced levels of intranuclear FGF2 | induced the formation of crosslinked dimers and oligomers of FGF2 within the cells | inhibited VEGF165-dependent cell growth with increased doses | effectively suppressed the Tat-dependent cell proliferation to the control level; also recorded: the growth stimulating ability of Tat was inhibited | severe loss in cell numbers below the control
